Data taken from patent US20100204295A1, “TREATMENT OF ALLERGIC DISEASE WITH IMMUNOMODULATOR COMPOUNDS” (SCICLONE PHARMACEUTICALS, INC., priority 2007, published 2010).

Key:
[1] = test system: BAL cells; experiment: BAL white blood cells and differentials, guinea pig model; type: in vivo, Dunkin-Hartley guinea pigs
Experimental: Animals were sensitized on day 0 ip with 50 mg/kg OVA. On Days 17, 18, 19, and 20, animals received an ip injection between 8 and 10 am with PBS, SCV-07 at 1 ug/kg, or SCV-07 at 10 ug/kg (Peptide treatment). Between 8 and 10 a.m. on Day 21, animals were administered peptide 2 hours before OVA or saline (NSS) aerosol challenge. 30 min before OVA or NSS aerosol challenge each animal was injected ip with an antihistamine (6.1 mg/kg pyrilamine maleate) to prevent death due to the anaphylactic response that accompanies aerosol OVA challenge. Animals were exposed to aerosol in pairs with either 1% OVA solution or NSS for 5 min in a plexiglass chamber (22×22×29 cm) using a DeVilbiss Model 35B Ultrasonic Nebulizer. Animals were observed during the total 5 min aerosolization and comments recorded. Within 22-24 hours after challenge, animals were euthanized, bled by cardiac puncture, lavaged and lung lobes removed for measurement of cellular infiltration. At the time of OVA or NSS challenge and euthanasia, animal weights ranged from approximately 350-550 g, with the average weight approximately 420 g. This experimental protocol is similar to that used in previously published studies (Regal and Fraser, 1996; Regal et al., 2000). Animals were euthanized with pentobarbital (100-200 mg/kg), bled by cardiac puncture, and lavaged with room temperature PBS. For bronchoalveolar lavage (BAL), the trachea was cannulated and 4 volumes of PBS were introduced into the tracheal cannula and gently withdrawn. Total lavage volume was 60 ml/kg. The BAL was centrifuged to sediment the cells, and the BAL cell pellet re-suspended in 1.0 ml PBS for determination of the total number of white blood cells (WBC) recovered in the BAL of each animal. The BAL supernatant was frozen at −70 C for determination of total protein recovered in the BAL supernatant using the method of Lowry et al. (1951). Total white blood cells in BAL were counted by standard methods in a hemacytometer using Turk's solution. Differential counts were obtained from cytospin preparations of BAL cells (3×10^4 cells) stained with a modified Wrights' stain (Diff Quik, American Scientific Products, McGraw Park, Ill.). Four hundred cells were counted and identified as eosinophils, neutrophils, or mononuclear cells. […] EPO activity from the homogenized lung after lavage was expressed as total OD/min from the left caudal lobe. MPO activity from the homogenized lung after lavage was expressed as total units of enzyme activity from the right caudal lobe. […] OD412 of the BAL supernatant was also determined to estimate the number of RBCS that were lysed during the lavage procedure and prior to re-suspension of the cells for counting. […]

[2] = test system: bronchial asthma; type: in vivo
From the text: Patient B-skii, reported with complaints of dyspnea attacks 6-7 times a day, cough with phlegm that was difficult to discharge, shortness of breath, and nasal obstruction. It is known from the history that, since 1985, they have suffered bronchial asthma, has been hospitalized several times by emergency medical services in the Allergological Department in conjunction with exacerbation of the disease. Since 1997, they have been taking systemic glucocorticoids (Prednisolone 2 tablets/day—maintenance dose). They are also receiving Beklazom LD 250 (up to 1000 μg/day), Flixotide 250 (to 1000 μg/day), prolonged broncholytics (Serevent 25 μg/unit 50 μg/s), Teotard 200 (2 k/day, 400 mg/day). The attacks are treated with salbutamol (Ventolin).
The patient was prescribed the treatment: • 1. Ventolin through a nebulizer during dyspnea attacks—for 2 days, then Astalin (DAI) during dyspnea no more than 3-4 times a day; • 2. Intravenous drip: • 1. Prednisolone 90 nu-60 nu-30 nu in 200.0 mL physiological saline; • 2. Euphylline 2.4%-10.0-5.0 mL. • 3. Heparin 5000 units. • 4. Benacort 200 (800 μg/day). • 5. Prednisolone 4 t/day (8:00, 12:00) • 6. Lazolvan through a nebulizer, then Ambrohexyl 1 t/3 times a day.
During attenuation of the acute condition (on the 8th day of hospitalization), SCV-07 was prescribed in an amount of 0.1 mg in 1.0 mL physiological saline once a day No. 5 daily [sic] intramuscular.
The patient took another examination under dynamic conditions (24 hours after the 5th intramuscular injection of SCV-07): Total blood analysis: erythrocytes—5.12·10^12/L, HB—159 g/L, leukocytes—9.7° 10^9/L, ESR—6 mm/h, b-, e—2%, rod nuclears—5%, segmented nuclears—67%, lymphocytes—20%, M—6%. Blood biochemistry: Sugar—5.7; Total bilirubin—8.9, ALT—0.12, AST—0.13, urea—5.12, creatinine—0.073 General sputum analysis—character—mucous, color gray, consistency viscous, flat epithelium 7-8, alveolar epithelium—none, leukocytes—1-2× in visual field. Hormonal status—cortisol—72.4 Evaluation of immune status

[3] = 24 hours after the 5th injection
[4] = after 5 intramuscular injections of 0.1 mg

Question: N[C@H](CCC(=O)N[C@@H](Cc1c[nH]c2ccccc12)C(=O)O)C(=O)O [SCV-07, γ-D-glutamyl-L-tryptophan] was tested. Which “Change in BAL neutrophils from NSS to OVA” value ([1]; 1 ug/kg, ANOVA contrast vs PBS treatment) did it give?
Answer: Its value is “differed”.

Question: What about the “Composition of cells in the BAL of control animals challenged with NSS” value ([1]; NSS aerosol, 1 or 10 ug/kg) of the same compound?
Answer: Its value is “did not significantly affect”.

Question: What about the “Total eosinophils in the BAL” value ([1]; OVA aerosol challenge) of the same compound?
Answer: The value was “did not change”.

Question: And the “% eosinophils in the BAL” value ([1]; OVA aerosol challenge, not statistically significant)?
Answer: The value was “tended to decrease”.

Question: And the “Immune status: CD3+” value [2, 3]?
Answer: The value was “CD3^+- 52”.

Question: And the “Immune status: CD4+” value [2, 3]?
Answer: Its value is “CD4^+- 36”.

Question: What about the “Immune status: CD8+” value [2, 3] of the same compound?
Answer: Its value is “CD8^+- 15”.

Question: What about the “Immune status: CD16+” value [2, 3] of the same compound?
Answer: Its value is “CD16^+- 7”.

Question: And the “Immune status: CD20+” value [2, 3]?
Answer: The value was “CD20^+-11”.

Question: What about the “Immune status: CD25+” value [2, 3] of the same compound?
Answer: Its value is “CD25^+-1.3”.

Question: And the “Immune status: Ig A” value [2, 3]?
Answer: The value was “Ig A - 1.11”.

Question: What about the “Immune status: Ig G” value [2, 3] of the same compound?
Answer: The value was “Ig G - 11.5”.

Question: And the “Immune status: Ig M” value [2, 3]?
Answer: Its value is “Ig M - 0.9”.

Question: And the “Immune status: NST” value [2, 3]?
Answer: Its value is “NST - 100/163”.

Question: What about the “Immune status: TSIK” value [2, 3] of the same compound?
Answer: Its value is “TSIK - 77”.

Question: And the “Immune status: κ (NST ratio)” value [2, 3]?
Answer: The value was “κ - 1.6”.

Question: And the “Immune status: Ig E” value ([2]; 24 hours after the 5th injection, 1130.6 on admission)?
Answer: Its value is “Ig E - 672.1”.

Question: What about the “Clinical dynamics of the disease” value [2, 4] of the same compound?
Answer: Its value is “elimination of dyspnea attacks, cough, rhinitis”.

Question: What about the “Patient well-being after the course” value [2, 4] of the same compound?
Answer: The value was “significant improvement of feeling well-being”.

Question: What about the “Shortness of breath (respiratory rate)” value ([2]; after course, 24 per minute on admission) of the same compound?
Answer: Its value is 16 per minute.
